Test results from article PMC6272684, “Synthesis, Antiproliferative and Antifungal Activities of 1,2,3-Triazole-Substituted Carnosic Acid and Carnosol Derivatives” (Molecules, 2015).
Converted amounts (≈) assume the structure as drawn. Blank lines part the entries; values can stand above or below the compound they belong to.

Columns and labels:
C. neoformans ATCC 32264 = assay: Antifungal broth microdilution (CLSI M27-A3), growth inhibition; type: cell-based, Cryptococcus neoformans
Experimental: (§1) The antifungal properties of compounds 1–24 against two clinical important fungal species, C. albicans ATCC 10231 and C. neoformans ATCC 32264 were investigated. Results were expressed as the percentages of inhibition of each fungus in the range 250–3.9 μg∙mL^−1 by using the standardized microbroth dilution method M-27A3 of Clinical and Laboratory Standards Institute which assures reliable and reproducible results.
(§2) For the antifungal evaluation, standardized strains from the American Type Culture Collection (ATCC), Rockville, MD, USA, were used. The microorganisms included yeasts (Candida albicans ATCC 10231 and Cryptococcus neoformans ATCC 32264). Strains were grown on Sabouraud-chloramphenicol agar slants for 48 h at 30 °C, maintained on slopes of Sabouraud-dextrose agar (SDA, Oxoid), and subcultured every 15 days to prevent pleomorphic transformations. Inocula of cell or spore suspensions were obtained according to reported procedures and adjusted to 1–5 × 10^3 cells/spores with colony forming units (CFU)/mL [29].
(§3) Broth microdilution techniques were performed in 96-well microplates according to the Clinical and Laboratory Standards Institute Reference Method for Broth Dilution Antifungal Susceptibility Testing of Yeasts, Approved Standard M27-A3 [29]. For the assay, compound test wells (CTWs) were prepared with stock solutions of each compound in DMSO (maximum concentration ≤1%), diluted with RPMI-1640, to final concentrations of 250–3.9 μg∙mL^−1. An inoculum suspension (100 μL) was added to each well (final volume in the well = 200 μL). A growth control well (GCW) (containing medium, inoculum, and the same amount of DMSO used in a CTW, but compound-free) and a sterility control well (SCW) (sample, medium, and sterile water instead of inoculum) were included for each fungus tested. Microtiter trays were incubated in a moist, dark chamber at 30 °C for 48 h for both yeasts. Microplates were read in a VERSA Max microplate reader (Molecular Devices, Sunnyvale, CA, USA). Amphotericin B (Sigma-Aldrich) was used as positive control. Tests were performed in triplicate. Reduction of growth for each compound concentration was calculated as follows: % of inhibition = 100 − (OD 405 CTW − OD 405 SCW)/(OD 405 GCW − OD 405 SCW). The means ± SEM were the results of triplicate tests. Three endpoints were defined from the assay explained above and the dose-response curves. Minimum Inhibitory concentration (MIC) resulting in total fungal growth inhibition was named MIC100 while MIC50 was defined as the minimum concentration that inhibits 50% of the fungal growth.

C. albicans ATCC 10231 = assay: as above; type: cell-based, Candida albicans
Experimental: as §1, §2, §3

MIC50 (C. neoformans ATCC 32264; Cryptococcus neoformans, ATCC32264, C. neoformans ATCC 32264, read-out: MIC50 (minimum concentration to inhibit 50% of fungal growth), C. neoformans): 0.5 µg/mL (≈ 0.541 µM)
MIC50 (C. albicans ATCC 10231; Candida albicans, ATCC10231, C. albicans ATCC 10231, read-out: MIC50 (minimum concentration to inhibit 50% of fungal growth), C. albicans): 0.25 µg/mL (≈ 0.271 µM)
Structure (SMILES): C[C@@H]1[C@H](O)[C@@H](C)/C=C/C=C/C=C/C=C/C=C/C=C/C=C/[C@H](O[C@@H]2O[C@H](C)[C@@H](O)[C@H](N)[C@@H]2O)C[C@@H]2O[C@](O)(C[C@@H](O)C[C@@H](O)[C@H](O)CC[C@@H](O)C[C@@H](O)CC(=O)O[C@H]1C)C[C@H](O)[C@H]2C(=O)O [Amph B, amphotericin B, reference compound]
inhibition at 3.9 µg/mL (C. neoformans ATCC 32264; Cryptococcus neoformans, ATCC32264, 3.9 μg∙mL^−1, 48 h, read-out: Inhibition percentage against C. neoformans ATCC 32264): 100%
inhibition at 7.8 µg/mL (C. neoformans ATCC 32264; Cryptococcus neoformans, ATCC32264, 7.8 μg∙mL^−1, 48 h, read-out: Inhibition percentage against C. neoformans ATCC 32264): 100%
inhibition at 15.6 µg/mL (C. neoformans ATCC 32264; Cryptococcus neoformans, ATCC32264, 15.6 μg∙mL^−1, 48 h, read-out: Inhibition percentage against C. neoformans ATCC 32264): 100%
inhibition at 31.2 µg/mL (C. neoformans ATCC 32264; Cryptococcus neoformans, ATCC32264, 31.2 μg∙mL^−1, 48 h, read-out: Inhibition percentage against C. neoformans ATCC 32264): 100%
inhibition at 62.5 µg/mL (C. neoformans ATCC 32264; Cryptococcus neoformans, ATCC32264, 62.5 μg∙mL^−1, 48 h, read-out: Inhibition percentage against C. neoformans ATCC 32264): 100%
inhibition at 125 µg/mL (C. neoformans ATCC 32264; Cryptococcus neoformans, ATCC32264, 125 μg∙mL^−1, 48 h, read-out: Inhibition percentage against C. neoformans ATCC 32264): 100%
inhibition at 250 µg/mL (C. neoformans ATCC 32264; Cryptococcus neoformans, ATCC32264, 250 μg∙mL^−1, 48 h, read-out: Inhibition percentage against C. neoformans ATCC 32264): 100%
inhibition at 3.9 µg/mL (C. albicans ATCC 10231; Candida albicans, ATCC10231, 3.9 μg∙mL^−1, 48 h, read-out: Inhibition percentage against C. albicans ATCC 10231): 100%
inhibition at 7.8 µg/mL (C. albicans ATCC 10231; Candida albicans, ATCC10231, 7.8 μg∙mL^−1, 48 h, read-out: Inhibition percentage against C. albicans ATCC 10231): 100%
inhibition at 15.6 µg/mL (C. albicans ATCC 10231; Candida albicans, ATCC10231, 15.6 μg∙mL^−1, 48 h, read-out: Inhibition percentage against C. albicans ATCC 10231): 100%
inhibition at 62.5 µg/mL (C. albicans ATCC 10231; Candida albicans, ATCC10231, 62.5 μg∙mL^−1, 48 h, read-out: Inhibition percentage against C. albicans ATCC 10231): 100%
inhibition at 125 µg/mL (C. albicans ATCC 10231; Candida albicans, ATCC10231, 125 μg∙mL^−1, 48 h, read-out: Inhibition percentage against C. albicans ATCC 10231): 100%
inhibition at 250 µg/mL (C. albicans ATCC 10231; Candida albicans, ATCC10231, 250 μg∙mL^−1, 48 h, read-out: Inhibition percentage against C. albicans ATCC 10231): 100%

MIC50 (minimum concentration to inhibit 50% of fungal growth), C. neoformans (C. neoformans ATCC 32264; C. neoformans ATCC 32264): 125 µg/mL
MIC50 (minimum concentration to inhibit 50% of fungal growth), C. albicans (C. albicans ATCC 10231; C. albicans ATCC 10231): >250 µg/mL
Structure (SMILES): COC(=O)C12CCCC(C)(C)C1CCc1cc(C(C)C)c(OC(=O)CCc3cn(CSc4ccccc4)nn3)c(OC(=O)CCc3cn(CSc4ccccc4)nn3)c12 (stereo not shown) [Compound 9, Methyl(11,12-O-(3-(((1-phenylthio)methyl)-1H-1,2,3-triazol-4-yl)-propanoyloxy)-abieta-8,11,13-triene)-20-oate]
Inhibition percentage against C. neoformans ATCC 32264 (C. neoformans ATCC 32264; 3.9 μg∙mL^−1, 48 h): 0.0%
Inhibition percentage against C. neoformans ATCC 32264 (C. neoformans ATCC 32264; 7.8 μg∙mL^−1, 48 h): 5.1 ± 0.7%
Inhibition percentage against C. neoformans ATCC 32264 (C. neoformans ATCC 32264; 15.6 μg∙mL^−1, 48 h): 7.3 ± 0.4%
Inhibition percentage against C. neoformans ATCC 32264 (C. neoformans ATCC 32264; 31.2 μg∙mL^−1, 48 h): 13.7 ± 1.5%
Inhibition percentage against C. neoformans ATCC 32264 (C. neoformans ATCC 32264; 62.5 μg∙mL^−1, 48 h): 23.4 ± 1.3%
Inhibition percentage against C. neoformans ATCC 32264 (C. neoformans ATCC 32264; 125 μg∙mL^−1, 48 h): 53.6 ± 2.6%
Inhibition percentage against C. neoformans ATCC 32264 (C. neoformans ATCC 32264; 250 μg∙mL^−1, 48 h): 62.4 ± 3.8%
Inhibition percentage against C. albicans ATCC 10231 (C. albicans ATCC 10231; 3.9 μg∙mL^−1, 48 h): 0.0%
Inhibition percentage against C. albicans ATCC 10231 (C. albicans ATCC 10231; 7.8 μg∙mL^−1, 48 h): 0.0%
Inhibition percentage against C. albicans ATCC 10231 (C. albicans ATCC 10231; 15.6 μg∙mL^−1, 48 h): 3.5 ± 0.3%
Inhibition percentage against C. albicans ATCC 10231 (C. albicans ATCC 10231; 62.5 μg∙mL^−1, 48 h): 9.4 ± 0.7%
Inhibition percentage against C. albicans ATCC 10231 (C. albicans ATCC 10231; 125 μg∙mL^−1, 48 h): 19.2 ± 0.1%
Inhibition percentage against C. albicans ATCC 10231 (C. albicans ATCC 10231; 250 μg∙mL^−1, 48 h): 15.9 ± 1.2%
Inhibition percentage against C. albicans ATCC 10231 (C. albicans ATCC 10231; 31. μg∙mL^−1, 48 h): 4.7 ± 0.1%
